According to the Deep4Chem optical property database:
Values belong to the compound of their own block, whether it stands above or below them.

Test: solvent given as SMILES

fluorescence lifetime (in C1CCOC1): 2.31 ns
SMILES: CCn1c2ccccc2c2cc(-c3cc(-c4ccc5c(c4)c4ccccc4n5CC)nc(S(C)(=O)=O)n3)ccc21

SMILES: CCNc1cc2oc(=O)cc(C(F)(F)F)c2cc1C
fluorescence lifetime (in CC#N): 7.7 ns

SMILES: O=P1(c2ccccc2)c2ccc(N3c4ccccc4Sc4ccccc43)cc2-c2cc(N3c4ccccc4Sc4ccccc43)ccc21
fluorescence lifetime (in c1ccc2c(c1)c1ccccc1n2-c1ccc(-c2ccc(-n3c4ccccc4c4ccccc43)cc2)cc1): 26 ns

SMILES: O=C1c2ccccc2-c2ccc(Nc3nc(Cl)nc(Cl)n3)c3cccc1c23
fluorescence lifetime (in CC#N): 6.6 ns
fluorescence lifetime (in CC(C)=O): 4.5 ns
fluorescence lifetime (in CC(C)O): 7.7 ns
fluorescence lifetime (in CCCCOCCCC): 0.5 ns
fluorescence lifetime (in CCOC(C)=O): 1.6 ns
fluorescence lifetime (in CCOCC): 0.7 ns
fluorescence lifetime (in CO): 7.6 ns
fluorescence lifetime (in Cc1ccccc1): 0.9 ns
fluorescence lifetime (in Clc1ccccc1): 2 ns
fluorescence lifetime (in N#Cc1ccccc1): 6 ns
fluorescence lifetime (in O=C1CCCCC1): 3.4 ns

fluorescence lifetime (in ClCCl): 6.4 ns
SMILES: F[B-]1(F)n2c(c3cccc4cccc2c43)=Nc2cccc(Cl)[n+]21

fluorescence lifetime (in CC#N): 4 ns
fluorescence lifetime (in CCCCCC): 3.7 ns
SMILES: C/C=C/c1ccc(OC)c(OC)c1

fluorescence lifetime (in C1CCCCC1): 0.75 ns
fluorescence lifetime (in CC#N): 0.84 ns
SMILES: FC(F)(F)c1ccc(/C=C/c2nc3c(ccc4ccccc43)s2)cc1

fluorescence lifetime (in C1CCCCC1): 3.3 ns
fluorescence lifetime (in CC#N): 3.8 ns
fluorescence lifetime (in ClCCl): 3.4 ns
SMILES: O=S1(=O)c2ccccc2-c2cc(-c3c4ccccc4cc4ccccc34)ccc21

fluorescence lifetime (in O): 2.27 ns
SMILES: Nc1ccc2ccc([O-])cc2c1

fluorescence lifetime (in ClCCl): 3.8 ns
SMILES: COc1ccc(C2=Cc3cc4ccccc4cc3P2(=O)c2ccccc2)cc1 (stereo not given)

fluorescence lifetime (in ClCCl): 4.77 ns
SMILES: Cn1c(=O)cc(C(=O)c2ccccc2)c2sc(-c3ccc(OC(F)(F)F)cc3)cc21

fluorescence lifetime (in ClCCl): 12.9 ns
SMILES: O=P1(c2ccccc2)C2=C(c3ccccc31)S(=O)(=O)c1ccccc12 (stereo not given)

fluorescence lifetime (in C1CCOC1): 11 ns
fluorescence lifetime (in CC#N): 9.96 ns
fluorescence lifetime (in CC(C)O): 10.8 ns
fluorescence lifetime (in CCCCO): 11.4 ns
fluorescence lifetime (in CCO): 10.4 ns
fluorescence lifetime (in CO): 8.48 ns
fluorescence lifetime (in ClCCl): 6.93 ns
fluorescence lifetime (in O): 9.6 ns
SMILES: COc1ccc2cc([C@H](C)C(=O)O)ccc2c1

fluorescence lifetime (in C1CCCCC1): 4.02 ns
fluorescence lifetime (in CCOC(C)=O): 4.22 ns
fluorescence lifetime (in CO): 4.3 ns
SMILES: Cc1ccccc1C1=C2C=c3c(oc4ccc(F)cc34)=[N+]2[B-](F)(F)n2c1cc1c3cc(F)ccc3oc12

SMILES: Nc1ccccn1
fluorescence lifetime (in C1CCCCC1): 24.2 ns
fluorescence lifetime (in CC#N): 5 ns
fluorescence lifetime (in CCO): 5.1 ns
fluorescence lifetime (in CCOCC): 10.8 ns
fluorescence lifetime (in O): 24.4 ns

fluorescence lifetime (in C1CCOC1): 8.2 ns
SMILES: c1ccc(/C(=C(\c2ccccc2)c2cc(-c3ccc(-c4ccccc4)cc3)ccc2-c2ccc(-c3ccccc3)cc2)c2cc(-c3ccc(-c4ccccc4)cc3)ccc2-c2ccc(-c3ccccc3)cc2)cc1

SMILES: N#Cc1ccc(-n2cccc2)cc1
fluorescence lifetime (in CC#N): 8.2 ns
fluorescence lifetime (in CCCCCC): 2.42 ns
fluorescence lifetime (in CCOCC): 3.8 ns
fluorescence lifetime (in ClCCl): 3.1 ns

fluorescence lifetime (in CCCCCC): 4.69 ns
fluorescence lifetime (in CCCCCCCCO): 3.74 ns
fluorescence lifetime (in CCOC(C)=O): 4.07 ns
fluorescence lifetime (in CN(C)C=O): 3.46 ns
SMILES: CC1=CC(C)=[N+]2C1=Cc1c3ccccc3c(C#Cc3cccs3)n1[B-]2(F)F

fluorescence lifetime (in CO): 29 ns
SMILES: Oc1cc2ccc3cc(O)cc4ccc(c1)c2c34

fluorescence lifetime (in C1CCOC1): 6.9 ns
SMILES: C[Si](C)(C)c1ccc(-c2ccc(-c3ccc(-c4ccc(-c5ccc([Si](C)(C)C)cc5)s4)c4nsnc34)s2)cc1

SMILES: CCCCC(CC)CN1C(=O)c2cc(Oc3ccc(OC)cc3)c3c4c(Cl)cc5c6c(cc(Cl)c(c7c(Oc8ccc(OC)cc8)cc(c2c37)C1=O)c64)C(=O)N(c1c(C(C)C)cccc1C(C)C)C5=O (stereo not given)
fluorescence lifetime (in Cc1ccccc1): 0.56 ns

SMILES: c1ccc(-c2ccc3c(c2)c2cc(-c4ccccc4)ccc2n3-c2ccc3c(c2)c2cc(-n4c5ccc(-c6ccccc6)cc5c5cc(-c6ccccc6)ccc54)ccc2n3-c2ccc(-c3nc(-c4ccccc4)nc(-c4ccccc4)n3)cc2)cc1
fluorescence lifetime (in Cc1ccccc1): 6.3 ns

SMILES: CCOc1cc2c(cc1/C=C/C(=C(C#N)C#N)c1ccccc1)c1ccccc1n2CC
fluorescence lifetime (in C1CCOC1): 5.66 ns
fluorescence lifetime (in CC#N): 5.72 ns
fluorescence lifetime (in CCO): 5.24 ns
fluorescence lifetime (in CCOC(C)=O): 5.19 ns
fluorescence lifetime (in CN(C)C=O): 5.41 ns
fluorescence lifetime (in CS(C)=O): 7.08 ns
fluorescence lifetime (in Cc1ccccc1): 6.76 ns
fluorescence lifetime (in ClC(Cl)Cl): 7.78 ns
fluorescence lifetime (in ClCCl): 5.13 ns

fluorescence lifetime (in ClC(Cl)Cl): 6 ns
SMILES: CC(C)(C)c1ccc(Oc2c3c4c(cc(Oc5ccc(C(C)(C)C)cc5)c5c6c(Oc7ccc(C(C)(C)C)cc7)c(Oc7ccc(C(C)(C)C)cc7)c7c8c(cc(Oc9ccc(C(C)(C)C)cc9)c(c(c2Oc2ccc(C(C)(C)C)cc2)c45)c86)C(=O)OC7=O)C(=O)OC3=O)cc1

SMILES: BrCCCCCCCCCCCCOc1cc2ccc3cccc4ccc(c1)c2c34
fluorescence lifetime (in Cc1ccccc1): 60 ns

fluorescence lifetime (in CC#N): 0.18 ns
fluorescence lifetime (in CCCCCC): 0.22 ns
SMILES: Nc1ccc(/C=C/c2cccnc2)cc1

SMILES: c1cc2c3c(c1)-c1ccc4c5c(ccc(c15)B3c1ccc3c5c(ccc-2c15)CC3)CC4
fluorescence lifetime (in Cc1ccccc1): 5.28 ns

fluorescence lifetime (in CCO): 2.07 ns
SMILES: Cc1nnc(-c2ccc(-n3c4ccccc4c4ccccc43)cc2)o1

fluorescence lifetime (in CS(C)=O): 1.36 ns
SMILES: c1cnc2c(c1)c1nc(-c3ccc(-c4nc5c6cccnc6c6ncccc6c5[nH]4)cc3)[nH]c1c1cccnc12

fluorescence lifetime (in ClCCl): 10.8 ns
SMILES: COc1ccc(-c2c3cc4cc(C)sc4cc3c(C#Cc3ccccc3)c3cc4cc(C)sc4cc23)cc1

fluorescence lifetime (in CC1CCCCC1): 0.64 ns
fluorescence lifetime (in CC#N): 0.3 ns
fluorescence lifetime (in CO): 0.027 ns
SMILES: COC(=O)C(NC(=O)OC(C)(C)C)c1ccc2oc(-c3ccc(OC(=O)c4ccccc4)cc3O)nc2c1 (stereo not given)
